The results in this text go back to US20250333782A1 (ILLUMINA, INC., priority 2022, published 2025).

Structures can show the parent of a compound that is named as a salt.

For test [1], the system named is human DNA NA12878 treated with human TET2 dioxygenase. As to the kind of experiment: caC detection by Illumina sequencing, two-step incubation. The following applies: borane 40 mM or 100 mM, pH 4.3, 40° C. 2.5 hours, quench alpha-ketoglutarate, then 40° C. 18 hours; FIG. 5. How it is done:
A sample of human DNA NA12878 was treated with human TET2 dioxygenase to oxidise mC to caC. The sample was purified by a 1.8×SPRI and resuspended in RSB buffer. 2 M stocks of the amine-boranes were prepared in DMF, then added to the DNA to a final concentration of 40 mM or 100 mM, along with pH 4.3 sodium acetate buffer to a final concentration of 0.5 M. For the one-step protocol, the samples were incubated at 40° C. for 18 hours and 750 rpm shaking. For the two-step protocol, the samples were incubated at 40° C. for 2.5 hours and 750 rpm shaking, then quenched with a 1 M solution of alpha-ketoglutarate at pH 4.3 (to a final concentration of 400 mM) and kept at 40° C. for 18 hours and 750 rpm shaking. After the incubation, all samples underwent a 1.8×SPRI purification after adding 1 M pH 9 TRIS to basify the pH. Libraries were then amplified via PCR using the NEB-Next Enzymatic Methyl-Seq kit's NEB-Next Q5U Master Mix along with NEBNext Multiplex Oligos for Illumina Index primers. A final 0.9×SPRI was performed, before libraries were normalized to 20 pM sequenced on an Illumina NovaSeq (2×151 cycles). The sequencing data was analysed to extract the beta value, which reflects the percentage conversion of 5mC or 5hmC to T.
The percentage caC sites were detected by Illumina sequencing.

In test [2] the test system is dsDNA (300 bp-500 bp long, containing 4 known caC sites per strand). As to the kind of experiment: caC detection of dsDNA by Illumina sequencing, one-step overnight incubation. Particulars: one-step protocol, 100 mM borane, pH 4.3, 40° C., 16 h; expected beta=1; FIG. 4. On the procedure: An aliquot of 2 M borane stock solution in DMF was added to a buffered solution containing calculated amount of dsDNA (300 bp-500 bp long, containing 4 known caC sites per strand), resulting in the final borane concentration of 100 mM and pH of 4.3 (0.5 M NaOAc). The reaction mixture (50 μL) was shaken at 40° C. for 16 h. Then, the samples were purified by 1.8×SPRI (pH adjusted with 1 M Tris buffer pH=9.0). The purified DNA was PCR-amplified using the NEB-Next Enzymatic Methyl-Seq kit's NEB-Next Q5U Master Mix along with IDT-ILMN NextEra UDI Index primers. Finally, 0.9×SPRI purification was performed. The DNA libraries were normalized to 2 nM and 20 pM sequenced on an Illumina NextSeq instrument. The sequencing data was analysed to extract the beta value, which reflects the percentage conversion of caC to T.
The boranes tested included 5-methylthiazole borane VM117, 3-aminopyridine borane (3 AP), 4-methylpyridine-borane (4MeP), 5-(methoxymethyl)-2,4-dimethyl-1,3-thiazole borane (VM293), and 4-hydroxymethylpyridine borane (4HMP). […] The percentage of caC sites were detected by Illumina sequencing.

In test [3] the test system is 20mer oligodeoxyribonucleotide TTTCAGCTC[5caC]GGTCACGCTC
In words: Reaction kinetics of caC reduction on 20mer, boranes with cationic moieties. Particulars: 20 μM 20mer, 10 mM borane, NaOAc pH 4.3, 25° C.; FIG. 7. How it is done: (§1) To 45 μL of an aqueous solution of 0.111 mM 5caCpG dimer (0.1 mM final concentration) or 55.6 μM 7mer oligodeoxyribonucleotide (50 μM final concentration, sequence: AT[5caC]GCTA) or 22.2 μM 20mer oligodeoxyribonucleotide (20 μM final concentration, sequence: TTTCAGCTC[5caC]GGTCACGCTC) in 556 mM NaOAc buffer (pH 4.3, 500 mM final concentration) were added 5 μL of a stock solution of the respective borane (100 mM in DMF, 10 mM final concentration) and the reaction was incubated at 25° C. after short vortexing. Aliquots of 8 μL were taken at set time points and were quenched immediately with 4 μL alpha-ketoglutarate monosodium salt (1.0 M in H2O) and analysed by RP-UHPLC for consumption of the caC moiety in the starting material and formation of the product DHU moiety.

Test [4] relates to 7mer oligodeoxyribonucleotide AT[5caC]GCTA. In words: Reaction kinetics of caC reduction on 7mer, boranes with cationic moieties. The following applies: 50 μM 7mer, 10 mM borane, NaOAc pH 4.3, 25° C.; FIG. 7. On the procedure:
as §1

Regarding `[BH3-][n+]1ccc(C)cc1`, the “beta values with two-step protocol compared with one-step protocol” value in test [1] is given as “consistent with the value obtained with the one-step protocol”. For the same molecule, in test [2], the “beta value (percentage of caC sites detected by Illumina sequencing; conversion of caC to T)” value was approximately 1. As to `[BH3-][n+]1cccc(N)c1` [3 AP, 3-aminopyridine borane], in test [2], the “beta value (percentage of caC sites detected by Illumina sequencing; conversion of caC to T)” value is given as approximately 1. `C[N+](C)(C)CC(=O)NCc1ccncc1` [4AMP-Bet, 4-(Betainamidomethyl)pyridine borane (OBt/PF6 salt)]: in test [3], the “reaction kinetics of consumption of caC on the 20mer” value is “efficient reaction kinetics of consumption of caC”. Further, in test [4], the “reaction kinetics of consumption of caC on the 7mer” value is listed as “efficient reaction kinetics of consumption of caC”. Regarding `[BH3-][n+]1ccc(CO)cc1` [4HMP, 4-Hydroxymethylpyridine borane], the “beta value (percentage of caC sites detected by Illumina sequencing; conversion of caC to T)” value in test [2] is recorded as approximately 1.

Consider `B[n+]1csc(C)c1` [VM117, 5-methylthiazole borane], for which, in test [1], the “beta values with two-step protocol compared with one-step protocol” value is reported as “consistent with the value obtained with the one-step protocol”. The “beta value (percentage of caC sites detected by Illumina sequencing; conversion of caC to T)” value in test [2] was approximately 1. `B[n+]1c(C)sc(COC)c1C` [VM293, 5-(methoxymethyl)-2,4-dimethyl-1,3-thiazole borane]: the “beta value (percentage of caC sites detected by Illumina sequencing; conversion of caC to T)” value in test [2] is on record as approximately 1.
